# Legend:
# [1] = target: Histone deacetylase 1 (Homo sapiens, UniProt Q13547); assay: Inhibition of HDAC1 (unknown origin) using p53 (379 to 382 residues) (RHKK(Ac-AMC) as fluorogenic substrate incubated for 1 hrs by fluorescence based assay
# [2] = tested on: HCT-116; assay: Antiproliferative activity against human HCT-116 cells assessed as cell viability at 1 uM incubated for 72 hrs by luminescence assay; assay type: functional, cell-based; details: for viability at 1 µM: HCT-116, dose 1 µM, time 72 hrs, read-out: Activity; for IC50: HCT-116, 72 h
# [3] = Binding affinity to SNAI1 (unknown origin) assessed as dissociation constant; set-up: species or system Homo sapiens
# [4] = Metabolic stability in human liver microsomes assessed as half life incubated for 10 mins by LC-MS/MS analysis; assay type: ADME, Microsome
# [5] = Metabolic stability in monkey liver microsomes assessed as half life incubated for 10 mins by LC-MS/MS analysis; assay type: ADME, Macaca mulatta, Microsome; details: rhesus monkey
# [6] = Metabolic stability in dog liver microsomes assessed as half life incubated for 10 mins by LC-MS/MS analysis; assay type: ADME, Canis lupus familiaris, Microsome
# [7] = Metabolic stability in rat liver microsomes assessed as half life incubated for 10 mins by LC-MS/MS analysis; assay type: ADME, Microsome
# [8] = Metabolic stability in human liver microsomes assessed as intrinsic clearance incubated for 10 mins by LC-MS/MS analysis; assay type: ADME, Microsome; details: read-out: CLH
# [9] = Metabolic stability in monkey liver microsomes assessed as intrinsic clearance incubated for 10 mins by LC-MS/MS analysis; assay type: ADME, Macaca mulatta, Microsome; details: rhesus monkey, read-out: CLH
# [10] = Metabolic stability in dog liver microsomes assessed as intrinsic clearance incubated for 10 mins by LC-MS/MS analysis; assay type: ADME, Canis lupus familiaris, Microsome; details: read-out: CLH
# [11] = Metabolic stability in rat liver microsomes assessed as intrinsic clearance incubated for 10 mins by LC-MS/MS analysis; assay type: ADME, Microsome; details: read-out: CLH
# [12] = Metabolic stability in dog plasma assessed as half life at 100 uM measured upto 120 mins by LC-MS/MS analysis; assay type: ADME, cell-free, Canis lupus familiaris
# [13] = Metabolic stability in rat plasma assessed as half life at 100 uM measured upto 120 mins by LC-MS/MS analysis; assay type: ADME, cell-free
# [14] = Metabolic stability in human plasma assessed as parent compound remaining at 100 uM measured after 2 hrs by LC-MS/MS analysis; assay type: ADME, cell-free; details: read-out: Stability
# [15] = Metabolic stability in monkey plasma assessed as parent compound remaining at 100 uM measured after 2 hrs by LC-MS/MS analysis; assay type: ADME, cell-free, Macaca mulatta; details: rhesus monkey, read-out: Stability
# [16] = Metabolic stability in dog plasma assessed as parent compound remaining at 100 uM measured after 2 hrs by LC-MS/MS analysis; assay type: ADME, cell-free, Canis lupus familiaris; details: read-out: Stability
# [17] = Metabolic stability in rat plasma assessed as parent compound remaining at 100 uM measured after 2 hrs by LC-MS/MS analysis; assay type: ADME, cell-free; details: read-out: Stability
# [18] = tested on: HCT-116; assay: Antiproliferative activity against human HCT-116 cells assessed as reduction in cell viability incubated for 72 hrs by luminescence assay; assay type: functional, cell-based; details: HCT-116, 72 h
# Sequence of Histone deacetylase 1 (Q13547 whole entry, the tested form may be a part): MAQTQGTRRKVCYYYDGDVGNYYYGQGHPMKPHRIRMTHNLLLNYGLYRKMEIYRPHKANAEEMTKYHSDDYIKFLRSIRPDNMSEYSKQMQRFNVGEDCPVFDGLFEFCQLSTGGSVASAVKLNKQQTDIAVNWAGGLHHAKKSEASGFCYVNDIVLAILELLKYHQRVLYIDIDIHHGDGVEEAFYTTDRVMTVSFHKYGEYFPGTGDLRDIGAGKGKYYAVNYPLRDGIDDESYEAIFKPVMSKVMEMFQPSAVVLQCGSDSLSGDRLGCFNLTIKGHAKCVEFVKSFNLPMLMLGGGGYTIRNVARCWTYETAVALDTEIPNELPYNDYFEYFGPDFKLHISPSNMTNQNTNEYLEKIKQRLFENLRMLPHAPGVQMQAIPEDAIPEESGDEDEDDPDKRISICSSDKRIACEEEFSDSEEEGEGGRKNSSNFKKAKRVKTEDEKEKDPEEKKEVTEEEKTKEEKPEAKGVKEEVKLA
IC50 [1],IC50 [2],Kd [3],SMILES,viability at 1 µM [2],also measured
493 nM,–,–,Nc1ccccc1NC(=O)c1ccc(CSc2nc(NC3CCNCC3)c3cccn3n2)cc1,78.5%,–
4500 nM,–,–,CC(C)(C)OC(=O)N1CCC(Nc2nc(SCc3ccc(C(=O)Nc4ccc(F)cc4N)cc3)nn3cccc23)CC1,105%,–
1540 nM,–,–,CC(C)(C)c1cc(Nc2nc(SCc3ccc(C(=O)Nc4ccc(F)cc4N)cc3)nn3cccc23)n[nH]1,108%,–
1730 nM,–,–,Nc1ccccc1NC(=O)c1ccc(CSc2nc(NCc3ccc(C(F)(F)F)cc3)c3cccn3n2)cc1,102%,–
> 10000 nM,–,–,COc1ccc(CNc2nc(SCc3ccc(C(=O)Nc4ccc(F)cc4N)cc3)nn3cccc23)c(OC)c1,92.5%,–
238 nM,–,–,CC(C)(C)c1cc(Nc2nc(SCc3ccc(C(=O)Nc4ccccc4N)cc3)nn3cccc23)n[nH]1,96.1%,–
–,2080 nM,> 10000 nM,Nc1cc(F)ccc1NC(=O)c1ccc(CNC(=O)/C=C/c2cccnc2)cc1 [TUCIDINOSTAT],–,"half-life [4]: 6.27 h; half-life [5]: 2.05 h; half-life [6]: 8.37 h; half-life [7]: 3.17 h; microsomal CLint [8]: 4.18 µL/min/mg; microsomal CLint [9]: 11.2 µL/min/mg; microsomal CLint [10]: 2.76 µL/min/mg; microsomal CLint [11]: 7.35 µL/min/mg; half-life at 100 µM [12]: 16.3 h; half-life at 100 µM [13]: 8.83 h; remaining at 2 h, 100 µM [14]: 109%; remaining at 2 h, 100 µM [15]: 102%; remaining at 2 h, 100 µM [16]: 103%; remaining at 2 h, 100 µM [17]: 82.1%"
204 nM,1370 nM,945 nM,Cc1cccnc1Nc1nc(SCc2ccc(C(=O)Nc3ccccc3N)cc2)nn2cccc12,–,–
152 nM,959 nM,562 nM,Cc1cc(Nc2nc(SCc3ccc(C(=O)Nc4ccccc4N)cc3)nn3cccc23)n[nH]1,–,–
204 nM,1090 nM,905 nM,Nc1ccccc1NC(=O)c1ccc(CSc2nc(N3CCOCC3)c3cccn3n2)cc1,–,–
8160 nM,–,–,COc1ccc(CNc2nc(SCc3ccc(C(=O)Nc4ccc(F)cc4N)cc3)nn3cccc23)cc1OC,73.9%,–
2370 nM,–,–,Nc1cc(F)ccc1NC(=O)c1ccc(CSc2nc(NC3CCNCC3)c3cccn3n2)cc1,95.8%,–
148 nM,–,984 nM,Nc1ccccc1NC(=O)c1ccc(CSc2nc(Nc3cc[nH]n3)c3cccn3n2)cc1,60.3%,IC50 [18]: 1550 nM
481 nM,–,–,Nc1ccccc1NC(=O)c1ccc(CSc2nc(NCc3ccc(F)cc3)c3cccn3n2)cc1,83.1%,–
> 10000 nM,–,–,Nc1cc(F)ccc1NC(=O)c1ccc(CSc2nc(NCc3ccc(F)cc3)c3cccn3n2)cc1,89.3%,–
871 nM,–,–,CC(C)(C)OC(=O)N1CCC(Nc2nc(SCc3ccc(C(=O)Nc4ccccc4N)cc3)nn3cccc23)CC1,103%,–
595 nM,731 nM,426 nM,Nc1cc(F)ccc1NC(=O)c1ccc(CSc2nc(Nc3cc[nH]n3)c3cccn3n2)cc1,–,–
1320 nM,857 nM,875 nM,Cc1cccnc1Nc1nc(SCc2ccc(C(=O)Nc3ccc(F)cc3N)cc2)nn2cccc12,–,–
5040 nM,997 nM,514 nM,COc1ccc(CNc2nc(SCc3ccc(C(=O)Nc4ccc(F)cc4N)cc3)nn3cccc23)cc1,–,–
392 nM,292 nM,356 nM,COc1ccc(CNc2nc(SCc3ccc(C(=O)Nc4ccccc4N)cc3)nn3cccc23)cc1,–,–
2310 nM,948 nM,754 nM,Nc1cc(F)ccc1NC(=O)c1ccc(CSc2nc(N3CCOCC3)c3cccn3n2)cc1,–,–
406 nM,–,–,COc1ccc(CNc2nc(SCc3ccc(C(=O)Nc4ccccc4N)cc3)nn3cccc23)cc1OC,73.9%,–
336 nM,–,–,COc1ccc(CNc2nc(SCc3ccc(C(=O)Nc4ccccc4N)cc3)nn3cccc23)c(OC)c1,92.5%,–
> 10000 nM,–,–,Nc1cc(F)ccc1NC(=O)c1ccc(CSc2nc(NCc3ccc(C(F)(F)F)cc3)c3cccn3n2)cc1,107%,–

# Reference: ChEMBL document CHEMBL5046255, “Design and synthesis of dual inhibitors targeting snail and histone deacetylase for the treatment of solid tumour cancer” (Eur J Med Chem, 2022)
